Laboratory results taken from patent EP2141163A1, “Substituted thiazolidinones, their production and utilisation as medicine” (Bayer Schering Pharma Aktiengesellschaft, priority 2008, dated 2010).
Like-named read-outs stand apart in the source and are kept apart here.

Columns and labels:
NCI-H460 = experiment: Proliferation assay (crystal violet staining), NCI-H460; assay type: cell-based, human; conditions: tumour cell proliferation, 4 days incubation, read-out: Inhibition IC50 [M] (NCI-H460)
Description: (§1) Kultivierte humane Tumorzellen (MCF7, […] menschliche Mammakarzinomazellen, bezogen von ATCC HTB22; NCI-H460, menschliche nicht kleinzellige Lungenkarzinomazellen, ATCC HTB-177; DU 145, hormonunabhängige menschliche Prostatakarzinomazellen, ATCC HTB-81; HeLa-MaTu, humane Cervixkarzinomazellen, bezogen von EPO-GmbH, Berlin,) werden in einer Dichte von 5000 (MCF7, DU145) bzw. 3000 (NCI-H460, HeLa-MaTu) Zellen/Messpunkt in einer 96-Loch Multititerplatte in 200 µl des entsprechenden Wachstumsmediums ausplattiert. Nach 24 Stunden werden die Zellen einer Platte (Nullpunkt-Platte) mit Kristallviolett gefärbt (s.u.), während das Medium der anderen Platten durch frisches Kulturmedium (200 µl), dem die Testsubstanzen in verschiedenen Konzentrationen (0 µM, sowie im Bereich 0,01 - 30 µM; die finale Konzentration des Lösungsmittels Dimethylsulfoxid beträgt 0,5%) zugesetzt sind, ersetzt. Die Zellen werden für 4 Tage in Anwesenheit der Testsubstanzen inkubiert. Die Zellproliferation wird durch Färbung der Zellen mit Kristallviolett bestimmt: Die Zellen werden durch Zugabe von 20 µl/Messpunkt einer 11%igen Glutaraldehyd-Lösung 15 min bei Raumtemperatur fixiert. Nach dreimaligem Waschen der fixierten Zellen mit Wasser werden die Platten bei Raumtemperatur getrocknet. Die Zellen werden durch Zugabe von 100 µl/Messpunkt einer 0,1%igen Kristallviolett-Lösung (pH durch Zugabe von Essigsäure auf pH3 eingestellt) gefärbt. Nach dreimaligem Waschen der gefärbten Zellen mit Wasser werden die Platten bei Raumtemperatur getrocknet. Der Farbstoff wird durch Zugabe von 100 µl/Messpunkt einer 10%igen Essigsäure-Lösung gelöst. Die Extinktion wird photometrisch bei einer Wellenlänge von 595 nm bestimmt. Die prozentuale Änderung des Zellwachstums wird durch Normalisierung der Messwerte auf die Extinktionwerte der Nullpunktplatte (=0%) und die Extinktion der unbehandelten (0 µM) Zellen (=100%) berechnet. IC50-Werte werden nach einer 4-Parameterkurvenanpassung mit Hilfe eines Firmeneigenen Computerprogramms berechnet.

DU145 = experiment: Proliferation assay (crystal violet staining), DU145; assay type: cell-based, human; conditions: tumour cell proliferation, 4 days incubation, read-out: Inhibition IC50 [M] (DU145)
Description: as §1

PLK-1 = biological target: T1, PLK-1 (Homo sapiens, UniProt P53350); experiment: PLK-1 enzyme assay at 10 mM ATP (indirect HTRF assay); assay type: biochemical; conditions: read-out: Inhibition PLK-1 IC50 [M] (10 mM ATP)
T1 construct: Fusionsprotein bestehend aus GST und Plk (Kinase Domäne 33-345; MW 36 kDa, conc 0,8 µg/µl); GST; made in house; host or cells: Hi5 insect cells
T1 sequence (P53350 33-345): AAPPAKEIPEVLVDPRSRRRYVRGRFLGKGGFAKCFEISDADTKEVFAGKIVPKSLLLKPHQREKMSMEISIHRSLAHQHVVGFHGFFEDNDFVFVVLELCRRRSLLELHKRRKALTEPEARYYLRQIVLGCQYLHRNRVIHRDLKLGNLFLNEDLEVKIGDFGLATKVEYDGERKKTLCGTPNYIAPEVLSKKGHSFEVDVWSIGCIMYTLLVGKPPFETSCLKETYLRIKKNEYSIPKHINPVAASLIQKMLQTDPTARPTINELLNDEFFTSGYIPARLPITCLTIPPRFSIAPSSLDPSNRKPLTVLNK
Description: PLK Enzym-Assay (10 mM ATP)
Für den Kinaseassay wird aus Insektenzellen (Hi5) exprimiertes, durch Glutathion-Sepharose-Affinitätschromatographie und anschließender Gel-filtration (Suerdex 75) gereinigtes rekombinantes Fusionsprotein bestehend aus GST und Plk (Kinase Domäne 33-345; MW 36 kDa, conc 0,8 µg/µl) verwendet. Aliqots hiervon werden in flüssigem Stickstoff weggefroren und bei -80°C gelagert und nach dem Auftauen nur einmal verwendet.
Bei dem verwendeten Assay handelt es sich um einen indirekten HTRF-Assay, bei dem folgende Materialien und Verfahrensweisen zum Einsatz kamen. Als Substrat für die Kinasereaktion wird das biotinylierte Peptid Btn-Ahx-KKLNRTLSFAEPG-Amid x TFA, von Biosyntan, Probennr.: 6178.1 (C-Terminus in Amidform) verwendet. Hierbei handelt es sich um eine artifizielle Sequenz, die von keinem bekannten Protein abgeleitet wurde.
50 nl der in 100% Dimethylsulfoxid (DMSO) gelösten Testverbindungen (Endkonzentrationen : 0 µM und Konzentrationen im Bereich von 0,001 - 20 µM) werden mit 2 µl Enzym Arbeitslösung (0,039 ng/µl Plk-1 im Arbeitspuffer [25 mM MgCl2; 1mM DTT; 50 mM Hepes pH 7,0; 0,01% NP40; 1x Complete; 0,05% BSA] für 30 min vorinkubiert. Anschließend wird die Kinase-Reaktion durch Zugabe von 3 µl Substratlösung [16,7 mM Adenosintriphosphate (ATP) und 1,4 µM Substratpeptid (Biotin-Ttds- KKLNRTLSFAEPG -NH2)] in Arbeitspuffer gestartet, und nach 30 min durch Zugabe einer Abstopp-Lösung (100 mM EDTA, 100 mM Hepes pH 7,5, 800 mM Potassiumfluoride, 0,12% BSA, 0,4 µM SA-XLent (0,05 µM, von CIS bio international, Marcoule, Frankreich), Eu^3+ Cryptate-conjugated Rabbit anti-Mouse IgG (1,5 nM; ein mit Europiumkryptat markierter Anti-Maus-IgG-Antikörper von CIS bio international, Marcoule, Frankreich), 1 nM Anti-phospho-Serine Kinase (ein phospho-spezifischer Antikörper von Upstate Biotechnology, Dundee, Schottland), gestoppt, und bei 4°C über Nacht inkubiert. Danach wird die Menge des phosphorylierten Substratpeptids durch Messung des Resonanzenergietransfers vom Europium-markierten Antikörperkomplex zum Streptavidine-XLent bestimmt. Zu diesem Zweck wird die Fluoreszenzemission bei 620 nm und 665 nm nach Anregung bei 350 nm in einem HTRF-Messgerät, z. B. Rubystar (BMG Labtechnologies, Offenburg, Deutschland) oder Viewlux (Perkin-Elmer), bestimmt. Das Verhältnis der Emissionen bei 665 nm und bei 620 nm wird als Maß für die Menge des phosphorylierten Substratpeptids verwendet. Die Daten werden normalisiert (Enzymreaktion ohne Inhibitor = 0 % Inhibition, alle anderen Assaykomponenten, aber kein Enzym = 100 % Inhibition), und IC50-Werte werden durch einen 4 Parameter-Fit mit einer hauseigenen Software berechnet.

MCF-7 = experiment: Proliferation assay (crystal violet staining), MCF-7; assay type: cell-based, human; conditions: tumour cell proliferation, 4 days incubation, read-out: Inhibition IC50 [M] (MCF-7)
Description: as §1

| SMILES | IC50 (NCI-H460; Homo sapiens, 96 h) [M] | IC50 (DU145; Homo sapiens, DU-145, 96 h) [M] | IC50 (PLK-1) [M] | IC50 (MCF-7; Homo sapiens, MCF7, 96 h) [M] | IC50 (NCI-H460) [M] | IC50 (DU145) [M] | IC50 (MCF-7) [M] |
| --- | --- | --- | --- | --- | --- | --- | --- |
| CCn1c(=O)c(=CNc2ccc3ccn([C@H]4CCCC[C@H]4N(C)C)c3c2)s/c1=C(/C#N)C(=O)NCC#N (relative stereo) [B193] | 2.6e-07 | 1.8e-07 | 1.4e-08 | 1.8e-07 |  |  |  |
| CCn1c(=C(C#N)C(=O)NCC(F)(F)F)sc(=CNc2ccc3c(c2)N(C2CCN(C)CC2)CC3)c1=O [B01] | 1.9e-07 | 1.3e-07 | 5.7e-09 | 4.4e-07 |  |  |  |
| CCn1c(=O)c(=CNc2ccc3ccn(C4CCN(C)CC4)c3c2)s/c1=C(/C#N)C(=O)NCC(F)(F)F [B03, (Z,E/Z)-2-Cyan-2-[3-ethyl-5-[[[1-(1-methyl-4-piperidinyl)-1H-indol-6-yl]amino]methylen]-4-oxo-2-thiazolidinyliden]-N-(2,2,2-trifluorethyl)acetamid] |  |  | 1.6e-09 |  | 9.6e-08 | 5.1e-08 | 1.4e-07 |
| CCn1c(=C(C#N)C(=O)NCC#N)sc(=CNc2ccc3ccn(C4CCN(C)CC4)c3c2)c1=O [B04] | 1.4e-07 | 2.9e-08 | 2.9e-09 | 7.2e-08 |  |  |  |
| CCn1c(=C(C#N)C(=O)NC(C)(C)CO)sc(=CNc2ccc3ccn(C4CCN(C)CC4)c3c2)c1=O [B06] | 1.5e-07 | 1.2e-07 | 1e-08 | 2.4e-07 |  |  |  |
| CCn1c(=O)c(=CNc2ccc3c(CN4CCCCC4)cn(C)c3c2)s/c1=C(/C#N)C(=O)NCC#N [B08] | 3.3e-07 | 1.4e-07 | 5.4e-09 | 6.1e-07 |  |  |  |
| CCn1c(=O)c(=CNc2ccc3c(c2)c(CCN2CCCC2)cn3C)s/c1=C(/C#N)C(=O)NCC(F)(F)F [B35] | 3.3e-07 | 1.8e-07 | 5.9e-09 | 6.4e-07 |  |  |  |
| CCn1c(=C(C#N)C(=O)NCC(F)(F)F)sc(=CNc2ccc3c(c2)c(CCN(C)C)cn3C)c1=O [B39] | 4.8e-07 | 1.8e-07 | 6.1e-09 | 3.8e-07 |  |  |  |
| CCn1c(=C(C#N)C(=O)NCC#N)sc(=CNc2ccc3cnn(C4CCN(C(C)C)CC4)c3c2)c1=O [B44] | 4.9e-07 | 1.1e-07 | 1.1e-09 | 2e-07 |  |  |  |
| CCN1CCCC1Cn1ccc2ccc(NC=c3sc(=C(C#N)C(=O)NCC(F)(F)F)n(CC)c3=O)cc21 (stereo not shown) [B58] | 4.8e-07 | 3.2e-07 | 2e-08 | 3.7e-07 |  |  |  |
| CCn1c(=C(C#N)C(=O)NCC(F)(F)F)sc(=CNc2ccc3ccn(C4CCOCC4)c3c2)c1=O [B59] | 1.8e-07 | 1.7e-07 | 3.7e-08 | 3.9e-07 |  |  |  |
| CCn1c(=C(C#N)C(=O)NCC(F)(F)F)sc(=CNc2ccc3ccn(C4CCN(CC(N)=O)CC4)c3c2)c1=O [B71] | 2.1e-07 | 1.2e-07 | 8.2e-09 | 1.4e-07 |  |  |  |
| CCn1c(=C(C#N)C(=O)NCC(F)(F)F)sc(=CNc2ccc3ccn(C4CCN(CC(=O)OC)CC4)c3c2)c1=O [B72] | 1.1e-07 | 1.2e-07 | 3.9e-09 | 1.2e-07 |  |  |  |
